Results as given in patent US20230414599A1, “NICOTINAMIDE, NICOTINAMIDE PRECURSORS AND NICOTINAMIDE METABOLITES AND COMPOSITIONS THEREOF FOR REDUCING THE TIME TO RESOLUTION OF SYMPTOMS IN PATIENTS WITH COVID-19 AND OTHER VIRAL INFECTIONS” (CONARIS RESEARCH INSTITUTE AG, priority 2020, published 2023).

System: COVID-19
Test: COVit-1 trial expanded to 56 patients (nicotinamide vs silica)
Type: in vivo
Details: for Absolute Risk difference of being symptom-free, 95% Confidence Level: nicotinamide vs silica; for Relative Risk of being symptom-free: silica = REF
[1] = baseline, before supplementation, n = 28
[2] = reduction at week 2 vs baseline, generalized linear mixed model
[3] = week 2, 1,000 mg/day immediate-release, n = 28

For NC(=O)c1cccnc1 [Nicotinamide, nicotinamide], the “Chest pain, patients with symptom” value [1] was 25.0%, the “Cough with sputum, patients with symptom” value [1] was 25.0% and the “Cough, patients with symptom” value [1] was 71.4%. For the same compound, the “Diarrhoea, patients with symptom” value [1] was 28.6%, the “Fatigue, patients with symptom” value [1] was 82.1% and the “Fever, patients with symptom” value [1] was 50.0%. For the same compound, the “Head cold (rhinorrhoea), patients with symptom” value [1] was 78.6%, the “Headache, patients with symptom” value [1] was 78.6% and the “Impaired sense of smell, patients with symptom” value [1] was 60.7%. For the same compound, the “Impaired sense of taste, patients with symptom” value [1] was 64.3%, the “Joint pain, patients with symptom” value [1] was 35.7% and the “Loss of appetite, patients with symptom” value [1] was 42.9%. The “Muscle pain, patients with symptom” value [1] was 50.0%, the “Other (individually reported) symptoms, patients with symptom” value [1] was 28.6% and the “Reduced physical performance, patients with symptom” value [1] was 82.1%. For the same compound, the “Shortness of breath, patients with symptom” value [1] was 28.6%, the “Sore throat, patients with symptom” value [1] was 35.7% and the “Vomiting, patients with symptom” value [1] was 3.6%. For the same compound, the “Loss of appetite, OR estimate nicotinamide vs. silica” value (reduction at week 2 vs baseline, footnote: OR very high) was “>>^‡”, the “Vomiting, OR estimate nicotinamide vs. silica” value (reduction at week 2 vs baseline, footnote: OR very high (unstable due to the small sample)) was “>>^‡‡” and the “Chest pain, OR estimate nicotinamide vs. silica” value [2] was 12.7. The “Cough with sputum, OR estimate nicotinamide vs. silica” value [2] was 4.64, the “Cough, OR estimate nicotinamide vs. silica” value [2] was 1.01 and the “Diarrhoea, OR estimate nicotinamide vs. silica” value [2] was 0.84. For the same compound, the “Fatigue, OR estimate nicotinamide vs. silica” value [2] was 2.72, the “Fever, OR estimate nicotinamide vs. silica” value [2] was 1.40 and the “Head cold (rhinorrhoea), OR estimate nicotinamide vs. silica” value [2] was 1.41. The “Headache, OR estimate nicotinamide vs. silica” value [2] was 1.27, the “Impaired sense of smell, OR estimate nicotinamide vs. silica” value [2] was 2.05 and the “Impaired sense of taste, OR estimate nicotinamide vs. silica” value [2] was 1.24. The “Joint pain, OR estimate nicotinamide vs. silica” value [2] was 2.74, the “Muscle pain, OR estimate nicotinamide vs. silica” value [2] was 1.09 and the “Other (individually reported) symptoms, OR estimate nicotinamide vs. silica” value [2] was 1.07. For the same compound, the “Reduced physical performance, OR estimate nicotinamide vs. silica” value [2] was 1.19, the “Shortness of breath, OR estimate nicotinamide vs. silica” value [2] was 1.45 and the “Sore throat, OR estimate nicotinamide vs. silica” value [2] was 9.25. For the same compound, the “Chest pain, patients with symptom” value [3] was 3.9%, the “Cough with sputum, patients with symptom” value [3] was 3.9% and the “Cough, patients with symptom” value [3] was 19.2%. For the same compound, the “Diarrhoea, patients with symptom” value [3] was 7.7%, the “Fatigue, patients with symptom” value [3] was 30.8% and the “Fever, patients with symptom” value [3] was 3.9%. The “Head cold (rhinorrhoea), patients with symptom” value [3] was 19.2%, the “Headache, patients with symptom” value [3] was 19.2% and the “Impaired sense of smell, patients with symptom” value [3] was 23.1%. The “Impaired sense of taste, patients with symptom” value [3] was 23.1%, the “Joint pain, patients with symptom” value [3] was 3.9% and the “Loss of appetite, patients with symptom” value [3] was 0.0%. The “Muscle pain, patients with symptom” value [3] was 3.9%, the “Other (individually reported) symptoms, patients with symptom” value [3] was 15.4% and the “Reduced physical performance, patients with symptom” value [3] was 34.6%. The “Shortness of breath, patients with symptom” value [3] was 26.9%, the “Sore throat, patients with symptom” value [3] was 3.9% and the “Vomiting, patients with symptom” value [3] was 0.0%. The “Symptom-free, %” value (week 2, all COVID-19 patients, n = 28, intention to treat) was 35.7%, the “Absolute Risk difference of being symptom-free, 95% Confidence Level” value (week 2, all patients) was 21.4 (−0.6; 43.4) % and the “Relative Risk of being symptom-free” value (week 2, all patients) was 2.50. For the same compound, the “Symptom-free, %” value (week 2, female patients, n = 17) was 47.1%, the “Absolute Risk difference of being symptom-free, 95% Confidence Level” value (week 2, female patients) was 35.9 (8.1-63.8) ^ % and the “Relative Risk of being symptom-free” value (week 2, female patients) was 4.24. For the same compound, the “Symptom-free, %” value (week 2, male patients, n = 11) was 18.2%, the “Absolute Risk difference of being symptom-free, 95% Confidence Level” value (week 2, male patients) was 1.8 (−35.5; 31.9) % and the “Relative Risk of being symptom-free” value (week 2, male patients) was 0.91. The “Time from diagnosis to symptom-free, median” value (shortened to “Time … to symptom-free, median”) (week 2 analysis, all patients) was 11.0 days, the “Time … to symptom-free, median” value (week 2 analysis, female patients) was 10.5 days and the “Time … to symptom-free, median” value (week 2 analysis, male patients) was 13.0 days. For the same compound, the “Symptom-free, %” value (week 4, all COVID-19 patients, n = 28, intention to treat) was 39.3%, the “Absolute Risk difference of being symptom-free, 95% Confidence Level” value (week 4, all patients) was −3.57 (−22.2; 29.3) % and the “Relative Risk of being symptom-free” value (week 4, all patients) was 0.92. For the same compound, the “Symptom-free, %” value (week 4, female patients, n = 17) was 52.9%, the “Absolute Risk difference of being symptom-free, 95% Confidence Level” value (week 4, female patients) was 2.94 (−30.2; 36.1) % and the “Relative Risk of being symptom-free” value (week 4, female patients) was 1.06. The “Symptom-free, %” value (week 4, male patients, n = 11) was 18.2%, the “Absolute Risk difference of being symptom-free, 95% Confidence Level” value (week 4, male patients) was −0.12 (−48.2; 24.6) % and the “Relative Risk of being symptom-free” value (week 4, male patients) was 0.61. For the same compound, the “Median time to resolution of symptoms compared to silica” value (week 4, n = 28 per group) was “approximately half as long”, the “Time … to symptom-free, median” value (week 4 analysis, all patients) was 13.0 days and the “Time … to symptom-free, median” value (week 4 analysis, female patients) was 13.0 days. For the same compound, the “Time … to symptom-free, median” value (week 4 analysis, male patients) was 16.5 days.
